In paper PMC2654387 (Biochemistry, 2008):
Where two headings read alike, the source gives them in different places.

How the values were obtained:
BasE [1] = target: T1, BasE (Acinetobacter baumannii, UniProt A0A0D5YGP3); assay type: biochemical
EntE [2] = target: T2, EntE (Escherichia coli, UniProt P10378); conditions: cited from earlier work
BasE [3] = target: T1, BasE; test: biochemical; assay type: binding
EntE [4] = target: T2, EntE; test: biochemical; assay type: binding
MbtA [5] = target: T3, MbtA (Mycobacterium tuberculosis, UniProt P71716)
BasE [6] = target: T1, BasE; assay type: binding
MbtA [7] = target: T3, MbtA; remark: listed apart in the source
DhbE [8] = target: T4, DhbE (Bacillus subtilis, UniProt P40871); assay type: binding
VibE [9] = target: T5, VibE (Vibrio cholerae serotype O1, UniProt O07899)
BasE [10] = target: T1, BasE; assay type: binding; remark: listed apart in the source
YbtE [11] = target: T6, YbtE (Yersinia pseudotuberculosis serotype I, UniProt Q3V7P9)
MbtA [12] = target: T3, MbtA; remark: listed apart in the source
EntE [13] = target: T2, EntE
AsbC = AsbC (Bacillus anthracis, UniProt Q81RQ7)
MbtA [14] = target: T3, MbtA; test: biochemical; assay type: binding
VibE [15] = target: T5, VibE; test: biochemical; assay type: binding
DhbE [16] = target: T4, DhbE; test: biochemical; assay type: binding
YbtE [17] = target: T6, YbtE; conditions: read-out: Calculated Ligand-Protein Dissociation Constant KD2
[18] = Calculated Ligand-Protein Dissociation Constant KD2
[19] = read-out: Calculated Ligand-Protein Dissociation Constant KD2

T2 sequence (P10378 whole entry): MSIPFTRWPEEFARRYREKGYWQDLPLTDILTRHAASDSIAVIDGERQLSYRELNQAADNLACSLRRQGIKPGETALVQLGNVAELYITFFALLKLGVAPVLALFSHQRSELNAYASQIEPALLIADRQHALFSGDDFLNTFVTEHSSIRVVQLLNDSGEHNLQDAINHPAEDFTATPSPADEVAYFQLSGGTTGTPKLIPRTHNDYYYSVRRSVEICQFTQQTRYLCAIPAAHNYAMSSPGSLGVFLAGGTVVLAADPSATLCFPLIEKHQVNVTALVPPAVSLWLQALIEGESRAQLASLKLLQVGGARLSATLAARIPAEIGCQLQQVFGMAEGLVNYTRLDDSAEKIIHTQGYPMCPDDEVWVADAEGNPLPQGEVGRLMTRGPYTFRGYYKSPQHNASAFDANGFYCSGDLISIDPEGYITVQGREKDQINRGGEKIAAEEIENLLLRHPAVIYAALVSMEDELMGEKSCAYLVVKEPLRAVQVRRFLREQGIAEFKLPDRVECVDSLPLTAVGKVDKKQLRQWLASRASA
T5 sequence (O07899 whole entry): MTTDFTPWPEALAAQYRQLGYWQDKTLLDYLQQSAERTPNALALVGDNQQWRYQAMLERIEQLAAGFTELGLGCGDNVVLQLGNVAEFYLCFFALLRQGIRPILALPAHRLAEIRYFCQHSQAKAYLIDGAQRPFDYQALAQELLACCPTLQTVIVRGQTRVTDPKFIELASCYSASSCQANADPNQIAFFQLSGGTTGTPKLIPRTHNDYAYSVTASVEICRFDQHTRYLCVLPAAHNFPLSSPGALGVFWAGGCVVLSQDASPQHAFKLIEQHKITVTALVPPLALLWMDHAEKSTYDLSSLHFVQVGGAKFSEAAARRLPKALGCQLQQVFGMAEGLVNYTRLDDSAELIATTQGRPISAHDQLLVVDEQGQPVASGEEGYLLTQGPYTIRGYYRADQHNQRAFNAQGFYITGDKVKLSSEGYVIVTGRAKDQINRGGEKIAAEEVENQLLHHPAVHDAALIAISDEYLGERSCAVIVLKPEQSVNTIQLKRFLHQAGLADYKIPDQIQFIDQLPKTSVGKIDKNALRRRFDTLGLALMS
T6 sequence (Q3V7P9 1-525): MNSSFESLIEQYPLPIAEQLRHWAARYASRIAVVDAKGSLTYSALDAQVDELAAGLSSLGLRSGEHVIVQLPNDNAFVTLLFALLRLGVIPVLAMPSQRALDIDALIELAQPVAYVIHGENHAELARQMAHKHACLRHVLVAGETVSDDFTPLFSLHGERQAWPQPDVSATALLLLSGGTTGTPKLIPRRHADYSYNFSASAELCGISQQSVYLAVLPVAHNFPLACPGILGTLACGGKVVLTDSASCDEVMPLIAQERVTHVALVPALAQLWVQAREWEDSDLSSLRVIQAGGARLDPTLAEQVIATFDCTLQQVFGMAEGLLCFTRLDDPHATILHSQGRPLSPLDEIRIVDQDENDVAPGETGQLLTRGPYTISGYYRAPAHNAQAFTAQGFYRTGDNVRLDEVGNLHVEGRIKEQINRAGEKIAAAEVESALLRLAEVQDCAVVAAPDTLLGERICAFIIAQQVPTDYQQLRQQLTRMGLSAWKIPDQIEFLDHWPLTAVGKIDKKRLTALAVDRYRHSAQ
T1 sequence (A0A0D5YGP3 1-542): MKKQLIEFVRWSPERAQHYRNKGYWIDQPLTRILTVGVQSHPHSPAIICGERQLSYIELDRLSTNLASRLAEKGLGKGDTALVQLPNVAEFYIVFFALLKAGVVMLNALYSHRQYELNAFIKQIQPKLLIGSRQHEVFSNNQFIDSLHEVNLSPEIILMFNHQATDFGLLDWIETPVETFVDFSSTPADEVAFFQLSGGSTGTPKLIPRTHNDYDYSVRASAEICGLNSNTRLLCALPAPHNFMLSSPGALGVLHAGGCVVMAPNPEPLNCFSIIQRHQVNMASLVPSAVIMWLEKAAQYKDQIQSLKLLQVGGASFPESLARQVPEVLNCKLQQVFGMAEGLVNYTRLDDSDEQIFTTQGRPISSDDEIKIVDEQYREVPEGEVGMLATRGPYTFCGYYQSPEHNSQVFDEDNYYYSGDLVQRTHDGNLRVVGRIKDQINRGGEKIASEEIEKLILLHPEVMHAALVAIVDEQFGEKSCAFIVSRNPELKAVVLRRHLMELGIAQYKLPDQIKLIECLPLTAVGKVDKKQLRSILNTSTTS
T4 sequence (P40871 whole entry): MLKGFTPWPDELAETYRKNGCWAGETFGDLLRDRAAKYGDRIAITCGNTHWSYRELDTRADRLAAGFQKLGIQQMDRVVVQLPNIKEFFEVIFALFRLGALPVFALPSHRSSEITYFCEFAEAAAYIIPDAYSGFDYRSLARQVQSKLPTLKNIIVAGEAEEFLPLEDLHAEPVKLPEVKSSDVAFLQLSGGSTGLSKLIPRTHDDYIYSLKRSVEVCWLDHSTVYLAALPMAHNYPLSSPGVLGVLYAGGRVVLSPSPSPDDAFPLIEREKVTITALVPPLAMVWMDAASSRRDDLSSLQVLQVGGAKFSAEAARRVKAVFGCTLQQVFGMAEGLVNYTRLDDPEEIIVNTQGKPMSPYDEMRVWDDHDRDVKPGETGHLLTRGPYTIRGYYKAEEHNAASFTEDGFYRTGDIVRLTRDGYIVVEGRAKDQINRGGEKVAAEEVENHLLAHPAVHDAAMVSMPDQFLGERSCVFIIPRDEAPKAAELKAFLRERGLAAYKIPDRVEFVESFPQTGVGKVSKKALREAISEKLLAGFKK
T3 sequence (P71716 whole entry, looked up): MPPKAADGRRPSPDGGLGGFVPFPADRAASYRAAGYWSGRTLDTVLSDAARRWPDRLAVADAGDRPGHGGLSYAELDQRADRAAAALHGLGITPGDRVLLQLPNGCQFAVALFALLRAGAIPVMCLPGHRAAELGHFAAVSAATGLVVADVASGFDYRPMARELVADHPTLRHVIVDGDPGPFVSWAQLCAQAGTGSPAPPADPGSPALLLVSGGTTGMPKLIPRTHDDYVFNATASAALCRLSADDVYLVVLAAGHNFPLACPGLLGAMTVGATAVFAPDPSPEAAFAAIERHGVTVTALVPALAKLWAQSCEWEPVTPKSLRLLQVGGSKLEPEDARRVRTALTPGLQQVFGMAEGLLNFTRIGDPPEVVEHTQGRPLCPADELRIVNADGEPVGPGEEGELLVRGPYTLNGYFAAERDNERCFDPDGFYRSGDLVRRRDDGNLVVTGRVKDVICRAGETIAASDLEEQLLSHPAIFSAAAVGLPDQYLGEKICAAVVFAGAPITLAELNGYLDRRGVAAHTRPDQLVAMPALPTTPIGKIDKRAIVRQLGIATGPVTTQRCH
Sequence of AsbC (Q81RQ7 whole entry, looked up): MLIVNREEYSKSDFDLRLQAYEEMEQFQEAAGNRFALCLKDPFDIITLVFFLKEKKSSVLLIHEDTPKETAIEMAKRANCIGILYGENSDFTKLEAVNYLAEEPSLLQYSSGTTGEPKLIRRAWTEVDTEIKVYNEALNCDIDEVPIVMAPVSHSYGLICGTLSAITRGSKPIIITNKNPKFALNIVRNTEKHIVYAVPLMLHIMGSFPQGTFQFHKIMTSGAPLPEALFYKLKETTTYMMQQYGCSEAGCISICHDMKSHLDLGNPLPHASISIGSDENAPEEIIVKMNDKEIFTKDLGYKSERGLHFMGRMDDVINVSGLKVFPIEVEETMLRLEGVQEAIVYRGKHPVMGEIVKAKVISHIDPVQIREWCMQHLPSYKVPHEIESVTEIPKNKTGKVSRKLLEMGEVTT

O=C(O)c1ccc(O)c(O)c1 [3,4-dihydroxybenzoic acid]
kcat (pyrophosphate exchange) (BasE [1]): < 0.017 s⁻¹

O=C(O)c1ccccc1 [benzoic acid]
kcat (pyrophosphate exchange) (BasE [1]): < 0.017 s⁻¹ | kcat (EntE [2]): < 0.017 s⁻¹

Nc1ncnc2c1ncn2[C@@H]1O[C@H](COS(=O)(=O)NC(=O)c2ccccc2O)[C@@H](O)[C@H]1O [compound 4, 5′-O-[N-(salicyl)sulfamoyl]adenosine]
Kd (BasE [3]; [18]): 0.0167 ± 0.0031 µM | Kd (EntE [4]; [18]): 0.0336 ± 0.006 µM

CCN(CC)CC.Nc1ncnc2c1ncn2[C@@H]1O[C@H](COS(=O)(=O)NC(=O)c2ccccc2O)[C@@H](O)[C@H]1OCCOCCOCCNC(=O)c1ccc2c(c1)C(=O)OC21c2ccc(O)cc2Oc2cc(O)ccc21 [compound 6, 2′-O-{2-[2-(2-{[(Fluorescein-5-yl)carbonyl]amino}ethoxy)ethoxy]ethoxy}-5′-O-[N-(2-hydroxybenzoyl)sulfamoyl]adenosine Triethylammonium Salt]
TΔS (MbtA [5]): 0.71 ± 0.80 kcal/mol | ΔH (MbtA [5]): -9.80 ± 1.06 kcal/mol | TΔS (BasE [6]): 4.41 ± 0.18 kcal/mol | ΔH (BasE [6]): -4.88 ± 0.17 kcal/mol | koff (MbtA [7]): 0.0085 ± 0.00033 s⁻¹ | AB (DhbE [8]): 0.213 ± 0.005 | Kd (DhbE [8]): 0.369 ± 0.033 µM | Q (DhbE [8]): 0.89 | AB (VibE [9]): 0.200 ± 0.002 | Kd (VibE [9]): 0.0855 ± 0.0056 µM | Q (VibE [9]): 1.27 | AB (BasE [10]): 0.222 ± 0.002 | Q (BasE [10]): 1.02 | AB (YbtE [11]): 0.240 ± 0.002 | Kd (YbtE [11]): 0.0576 ± 0.0034 µM | Q (YbtE [11]): 1.07 | Q (MbtA [12]): 1.07 | AB (EntE [13]): 0.210 ± 0.001 | Kd (EntE [13]): 0.221 ± 0.008 µM | Q (EntE [13]): 1.21 | change of fluorescence anisotropy of the probe (binding to AsbC) (AsbC): did not show a significant change

O=C(O)c1ccccc1O [compound 20, salicylic acid]
Kd (BasE [3]; [18]): 57.5 µM | Kd (EntE [4]; [18]): 211 µM | Kd (MbtA [14]): 11.9 µM | Kd (VibE [15]): 36.6 µM | Km (EntE [2]): 91 µM | kcat (EntE [2]): 2.5 s⁻¹

O=C(O)c1cccc(O)c1O [compound 21, 2,3-dihydroxybenzoic acid]
Kd (BasE [3]; [18]): 2.63 µM | Kd (EntE [4]; [18]): 8.18 µM | Kd (DhbE [16]): 3.76 µM | Kd (MbtA [14]): > 300 µM | Kd (VibE [15]): 1.64 µM

Nc1ncnc2c1ncn2[C@@H]1O[C@H](COP(=O)(O)O)[C@@H](O)[C@H]1O [compound 22, adenosine monophosphate]
Kd (BasE [3]; [19]): 173 µM | Kd (EntE [4]; [19]): 125 µM | Kd (YbtE [17]): 260 µM | Kd (MbtA [14]; [19]): 183 µM | Kd (VibE [15]): 12 µM | Kd (VibE [15]; [19]): 12 µM
